Test results as given in US20250049036A1 (priority 2021, published 2025).

Key:
Phytophthora infestans = experiment: microbe, parasite or virus in culture; type: cell-based; details: 168 h, read-out: control compared to the untreated check
Parastagonospora nodorum = Parastagonospora nodorum (PARANO) spore growth inhibition in liquid medium, 96-well microtiter plate, OD 600; type: cell-based; details: spore suspension in PDB liquid medium, 18° C., 5-6 days, OD at 600, read-out: control compared to the untreated check
Method in brief: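 Read-out is percent growth inhibition from OD at 600 after 5-6 days at 18° C. Compounds, dissolved in DMSO, were diluted in potato dextrose broth and combined in equal volume with a 10^5 spores/ml suspension of PARANO.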

Botrytis cinerea [1] = experiment: Botrytis cinerea (gray mold) mycelial radial growth on potato dextrose agar; type: cell-based; details: 168 h, 22° C., seven days, read-out: control compared to the untreated check
Method: (§1) The compounds were dissolved in 0.3% dimethyl sulfoxide and then added to potato dextrose agar medium just prior to dispensing it into petri dishes. 5 mL medium, with the compound in the desired concentration, was dispensed into 60 mm sterile petri-plates. After solidification, each plate was seeded with a 5 mm size mycelial disc taken from the periphery of an actively growing virulent culture plate. The plates were incubated in growth chambers at 22° C. temperature and 90% relative humidity for seven days and the radial growth was measured and compared to the one of the untreated control.

Botrytis cinerea [2] = experiment: Botrytis cinerea liq. (BOTRCI) spore growth inhibition in liquid medium, 96-well microtiter plate, OD 405 nm; type: cell-based; details: spore suspension in YBA liquid medium, 22° C., 5-6 days, OD at 405 nm, read-out: control compared to the untreated check
Method: Yeast bacterial peptone and sodium acetate (YBA) liquid medium containing a BOTRCI (10^4 spores/ml) spore suspension was prepared. For the inhibition assay, each test compound was solved in dimethyl sulfoxide. 100 μl of the test compound in media-solution was added to a 96-well microtiter plate, consequently, the same volume (100 μl) of spore suspension was added to the well making the final test concentrations and the plate was incubated at 22° C. for 5-6 days. The growth inhibition was evaluated by measuring the OD at 405 nm. Percent inhibition was calculated with the below formula:
Where T=treatment, C=control, and B=blank

Botrytis cinerea [3] = experiment: Botrytis cinerea test on tomato, preventive, greenhouse; type: in vivo; details: preventive spray on bean/chili plants (heading: tomato), inoculated one day after treatment, read-out: control (efficacy, disease severity) compared to the untreated check
Phakopsora pachyrhizi = Phakopsora pachyrhizi test on soybean, preventive, greenhouse; type: in vivo; details: preventive spray on soybean, inoculated one day after treatment, read-out: control (efficacy, disease severity) compared to the untreated check
Method in brief: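 Preventive protocol: plants inoculated with a 2×10^5 P. pachyrhizi conidial suspension one day after spray application at the stated rate, then incubated at 22-24 °C and 80-90% RH. Compound was applied from 2% DMSO/acetone diluted in emulsified water.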

Pyricularia oryzae = experiment: microbe, parasite or virus in culture; type: cell-based; details: 168 h, read-out: control compared to the untreated check
Colletotrichum capsici = Colletotrichum capsici (anthracnose) mycelial radial growth on potato dextrose agar; type: cell-based; details: Colletotrichum truncatum, 168 h, 25° C., seven days, read-out: control compared to the untreated check
Method: as §1, with “25°” for “22°”, “60%” for “90%”

| Compound | inhibition of growth at 300 ppm (Phytophthora infestans) [%] | inhibition of growth at 300 ppm (Parastagonospora nodorum) [%] | inhibition of growth at 300 ppm (Botrytis cinerea [1]) [%] | inhibition of growth at 300 ppm (Botrytis cinerea [2]) [%] | also measured |
| --- | --- | --- | --- | --- | --- |
| Cc1cccc(CC(C)(C)NC(=O)c2cnc3c(ccn3C)c2)c1 [Compound 27, 1-methyl-N-(2-methyl-1-(m-tolyl)propan-2-yl)-1H-pyrrolo[2,3-b] pyridine-5-carboxamide] | ≥ 70 | ≥ 70 |  |  |  |
| COc1ccccc1CC(C)(C)NC(=O)c1cnc2c(c1)c(F)cn2C [Compound 72, 3-fluoro-N-(1-(2-methoxyphenyl)-2-methylpropan-2-yl)-1-methyl-1H-pyrrolo[2,3-b]pyridine-5-carboxamide] |  |  | ≥ 70 | ≥ 70 |  |
| Cn1ccc2cc(C(=O)NC3(C)Cc4ccccc4C3)cnc21 [Compound 78, 1-methyl-N-(2-methyl-2,3-dihydro-1H-inden-2-yl)-1H-pyrrolo[2,3-b] pyridine-5-carboxamide] |  | ≥ 70 | ≥ 70 | ≥ 70 |  |
| CN1CCOc2cc(C(=O)NC(C)(C)Cc3ccccc3)cnc21 [Compound 82, 4-methyl-N-(2-methyl-1-phenylpropan-2-yl)-3,4-dihydro-2H-pyrido[3,2-b] [1,4]oxazine-7-carboxamide] |  | ≥ 70 | ≥ 70 | ≥ 70 |  |
| Cn1ccc2ncc(C(=O)NC(C)(C)Cc3ccccc3)cc21 [Compound 86, 1-methyl-N-(2-methyl-1-phenylpropan-2-yl)-1H-pyrrolo[3,2-b] pyridine-6-carboxamide] | ≥ 70 | ≥ 70 |  |  | pest or weed control at 500 ppm (Botrytis cinerea [3]): ≥ 70%; pest or weed control at 500 ppm (Phakopsora pachyrhizi): ≥ 70% |
| COc1nc2[nH]ccc2cc1C(=O)NC(C)(Cc1ccccc1)CC(C)C (stereo not shown) [Compound 89, N-(2,4-dimethyl-1-phenylpentan-2-yl)-6-methoxy-1H-pyrrolo[2,3-b]pyridine-5-carboxamide] |  |  | ≥ 70 | ≥ 70 | pest or weed control at 500 ppm (Phakopsora pachyrhizi): ≥ 70% |
| CC(C)(Cc1ccccc1)NC(=O)c1cnc2cc[nH]c2c1 [Compound 95, N-(2-methyl-1-phenylpropan-2-yl)-1H-pyrrolo[3,2-b] pyridine-6-carboxamide] | ≥ 70 | ≥ 70 |  |  | pest or weed control at 500 ppm (Botrytis cinerea [3]): ≥ 70%; pest or weed control at 500 ppm (Phakopsora pachyrhizi): ≥ 70% |
| COc1cc(C(O)C(C)(C)NC(=O)c2cnc3ccsc3c2)ccc1F (stereo not shown) [Compound 119, N-(1-(4-fluoro-3-methoxyphenyl)-1-hydroxy-2-methylpropan-2-yl)thieno[3,2-b] pyridine-6-carboxamide] | ≥ 70 | ≥ 70 |  |  | inhibition of growth at 300 ppm (Pyricularia oryzae): ≥ 70%; pest or weed control at 500 ppm (Phakopsora pachyrhizi): ≥ 70% |
| CC(C)(COC(=O)c1ccccc1C(F)(F)F)NC(=O)c1cnc2c(c1)CCC2 [Compound 148, 2-(6,7-dihydro-5H-cyclopenta[b]pyridine-3-carboxamido)-2-methylpropyl 2-(trifluoromethyl)benzoate] |  |  | ≥ 70 | ≥ 70 |  |
| Cc1ccccc1C(=O)OCC(C)(C)NC(=O)c1cnc2c(c1)CCC2 [Compound 149, 2-(6,7-dihydro-5H-cyclopenta[b]pyridine-3-carboxamido)-2-methylpropyl 2-methylbenzoate] |  | ≥ 70 | ≥ 70 | ≥ 70 |  |
| C=C(C)CC(C)(COc1ccccc1F)NC(=O)c1cnc2ccsc2c1 (stereo not shown) [Compound 159, N-(1-(2-fluorophenoxy)-2,4-dimethylpent-4-en-2-yl)thieno[3,2-b] pyridine-6-carboxamide] |  | ≥ 70 | ≥ 70 |  |  |
| C=C(C)CC(C)(COc1ccccc1F)NC(=O)c1cnc2cc[nH]c2c1 (stereo not shown) [Compound 175, N-(1-(2-fluorophenoxy)-2,4-dimethylpent-4-en-2-yl)-1H-pyrrolo[3,2-b] pyridine-6-carboxamide] | ≥ 70 | ≥ 70 |  |  | inhibition of growth at 300 ppm (Colletotrichum capsici): ≥ 70% |
| Cn1cc(Br)c2cc(C(=O)NC(C)(C)COCc3ccccc3F)cnc21 [Compound 194, 3-bromo-N-(1-((2-fluorobenzyl)oxy)-2-methylpropan-2-yl)-1-methyl-1H-pyrrolo[2,3-b]pyridine-5-carboxamide] |  |  | ≥ 70 | ≥ 70 |  |
| CC(C)(COc1ccccn1)NC(=O)c1cnc2c(c1)CCC2 [Compound 202, N-(2-methyl-1-(pyridin-2-yloxy)propan-2-yl)-6,7-dihydro-5H-cyclopenta[b]pyridine-3-carboxamide] | ≥ 70 |  |  | ≥ 70 |  |
| CC(C)(COc1ccccn1)NC(=O)c1cnc2ccsc2c1 [Compound 212, N-(2-methyl-1-(pyridin-2-yloxy)propan-2-yl)thieno[3,2-b] pyridine-6-carboxamide] | ≥ 70 |  |  |  |  |
| Cn1cc(Br)c2cc(C(=O)NC(C)(C)COc3ccc(F)cn3)cnc21 [Compound 216, 3-bromo-N-(1-((5-fluoropyridin-2-yl)oxy)-2-methylpropan-2-yl)-1-methyl-1H-pyrrolo[2,3-b]pyridine-5-carboxamide] | ≥ 70 |  |  |  |  |
| CC(C)(COc1ccc(C#N)cn1)NC(=O)c1cnc2c(c1)CCC2 [Compound 223, N-(1-((5-cyanopyridin-2-yl)oxy)-2-methylpropan-2-yl)-6,7-dihydro-5H-cyclopenta[b]pyridine-3-carboxamide] | ≥ 70 | ≥ 70 |  | ≥ 70 |  |
| Cn1ccc2cc(C(=O)NC(C)(C)COc3ccnc(Cl)c3)cnc21 [Compound 229, N-(1-((2-chloropyridin-4-yl)oxy)-2-methylpropan-2-yl)-1-methyl-1H-pyrrolo[2,3-b]pyridine-5-carboxamide] | ≥ 70 |  |  |  |  |
| Cn1ccc2cc(C(=O)NC(C)(C)COc3ccc(F)cn3)cnc21 [Compound 230, N-(1-((5-fluoropyridin-2-yl)oxy)-2-methylpropan-2-yl)-1-methyl-1H-pyrrolo[2,3-b]pyridine-5-carboxamide] | ≥ 70 | ≥ 70 |  | ≥ 70 | inhibition of growth at 300 ppm (Colletotrichum capsici): ≥ 70% |
| CC(C)(COc1ccc(F)cn1)NC(=O)c1cnc2c(c1)CCC2 [Compound 233, N-(1-((5-fluoropyridin-2-yl)oxy)-2-methylpropan-2-yl)-6,7-dihydro-5H-cyclopenta[b]pyridine-3-carboxamide] | ≥ 70 |  |  |  |  |
| O=C(NC1(Cc2ccccc2)CC1)c1cc2c(nc1Cl)CCC2 [Compound 246, N-(1-benzylcyclopropyl)-2-chloro-6,7-dihydro-5H-cyclopenta[b]pyridine-3-carboxamide] | ≥ 70 |  |  |  |  |
| O=C(NCC1(c2ccccc2)CC1)c1cc2c(nc1Cl)CCC2 [Compound 248, 2-chloro-N-((1-phenylcyclopropyl)methyl)-6,7-dihydro-5H-cyclopenta[b]pyridine-3-carboxamide] | ≥ 70 |  |  |  |  |
| COc1nc2c(cc1C(=O)NC(C)CCc1ccccc1)CCC2 (stereo not shown) [Compound 249, 2-methoxy-N-(4-phenylbutan-2-yl)-6,7-dihydro-5H-cyclopenta[b]pyridine-3-carboxamide] | ≥ 70 | ≥ 70 |  |  |  |
| CC(CCc1ccccc1)NC(=O)c1cc2c(nc1Cl)CCC2 (stereo not shown) [Compound 250, 2-chloro-N-(4-phenylbutan-2-yl)-6,7-dihydro-5H-cyclopenta[b]pyridine-3-carboxamide] | ≥ 70 |  |  |  |  |
